Source: US20050222054A1, “Combination comprising a CDK inhibitor and doxorubicin” (Cyclacel Limited, priority 2002, published 2005)
“Also recorded” adds a separate entry of the source.

Assays:
[1] = test system: SK-UT-1 cells; assay: Flow cytometry DNA cell cycle analysis; type: cell-based, human; conditions: 48 h treatment
[2] = test system: osteosarcoma line SaOS-2 (pRb-deficient); conditions: pRb-deficient SaOS-2, in combination with doxorubicin; not seen in SaOS-2 transfected with Rb; cited from earlier work
[3] = test system: POMC (Rb deficient) tumours in POMC-Cre/POMC-Luc;Rb-flox/flox compound mutant mice; conditions: doxorubicin 5 mg/kg intravenously once a week for four weeks; in the combination, roscovitine 500 mg/kg orally twice daily for two days before each doxorubicin
From the text: A conditional mouse model for retinoblastoma-dependent sporadic cancer was generated (Vooijs et al; Cancer Res 2002 Mar 15; 62(6): 1862-7; 2002) which permits non-invasive monitoring of pituitary tumour development in live animals via in vivo bioluminescence imaging of luciferase expression. This mouse model permits the longitudinal monitoring of tumour onset, progression and response to therapeutic agents that specifically target the retinoblastoma pathway. By way of summary, a retinoblastoma conditional KO line was crossed with a POMC-Cre/POMC-Luciferase transgenic line to generate POMC-Cre/POMC-Luc;Rb-flox/flox compound mutant mice. These mice develop POMC (Rb deficient) tumours (Vooijs et al, ibid) and as illustrated in FIG. 3.
In this study, doxorubicin was administered once a week for four weeks (5 mg/kg; intravenously).

SMILES	% of total, G1 [1]	% of total, G2M [1]	% of total, Go [1]	% of total, S [1]	sensitisation to the cytotoxic effects of doxorubicin [2]	tumour response (bioluminescence) [3]
CC[C@H](CO)Nc1nc(NCc2ccccc2)c2ncn(C(C)C)c2n1 [Roscovitine, 6-benzylamino-2-[(R)-1-ethyl-2-hydroxyethylamino]-9-isopropylpurine]	36%	19%	23%	16%	–	–
CN1CC[C@H](c2c(O)cc(O)c3c(=O)cc(-c4ccccc4Cl)oc23)[C@H](O)C1 [flavopiridol]	–	–	–	–	significantly sensitised	–
COc1cccc2c1C(=O)c1c(O)c3c(c(O)c1C2=O)C[C@@](O)(C(=O)CO)C[C@@H]3O[C@H]1C[C@H](N)[C@H](O)[C@H](C)O1 [Doxo]	9%	43%	22%	18%	–	delay tumorigenesis; also recorded: temporarily halts tumour progression
